Where a SMILES comes first, the peptide text is derived from it. Bridges are numbered along the chain shown (N, C = ends). [ ]: non-standard residue; d: D form. The star is where a group is joined. X1 = CC[C@H](C)CCCCC(=O)*; dDab = NCC[C@@H](N)C(=O)O; Dab = NCC[C@H](N)C(=O)O
Experiments:
[1] = Acute toxicity testing in rats; type: in vivo, Sprague-Dawley rat; conditions: IV dose of 1 mg/kg, similar experiment
Experimental: One female Sprague-Dawley rat was administered a 1 mg/kg dose of the test Compound 5. Clinical observations were taken immediately following the administration of compound and at 0.5, 1, 2 and 4 hours post-dose.

A. baumannii 1570 = assay: MIC against the primary screening panel (broth microdilution); type: cell-based; set-up: key: A: a MIC value measurement that is the same as that observed for polymyxin B; a MIC value measured that is lower than the comparable value observed for polymxin B; a MIC value measured that is higher than the comparable value observed for polymyxin B; conditions: class relative to polymyxin B
Experimental: (§1) Antibacterial potency can be assessed by broth microdilution according to CLSI guidelines, plates can be incubated at 37° C., and aeration (rotation at 200 rpm) can be employed. In some assays, surfactant (Survanta, Abbott Laboratories) can be added to give a final concentration of 1, 10 and 40% in caMHB. Native polymyxin A, polymyxin B and the comparator compound of Formula II (polymyxin B decapeptide with an o-chlorophenyl urea tail) were included for comparison.

[2] = tested on: K. pneumoniae 1800 (PMX-resistant); assay: as above; type: cell-based; set-up: key: A: a MIC value measurement that is the same as that observed for polymyxin B; a MIC value measured that is lower than the comparable value observed for polymxin B; a MIC value measured that is higher than the comparable value observed for polymyxin B; conditions: class relative to polymyxin B
Experimental: as §1

K. pneumoniae 933 = assay: as above; type: cell-based; set-up: key: A: a MIC value measurement that is the same as that observed for polymyxin B; a MIC value measured that is lower than the comparable value observed for polymxin B; a MIC value measured that is higher than the comparable value observed for polymyxin B; conditions: class relative to polymyxin B
Experimental: as §1

P. aeruginosa 44 [3] = assay: as above; type: cell-based; set-up: key: A: a MIC value measurement that is the same as that observed for polymyxin B; a MIC value measured that is lower than the comparable value observed for polymxin B; a MIC value measured that is higher than the comparable value observed for polymyxin B; conditions: class relative to polymyxin B
Experimental: as §1

A. baum = assay: MIC50 and MIC90, panel of Gram negative bacterial strains (CLSI broth microdilution); type: cell-based, A. baumanni; set-up: key to A. baum MIC50 / A. baum MIC90: A: a measured MIC value equal to that of polymyxin B; a measured MIC value less than the corresponding MIC value measured for polymyxin B; a measured MIC value greater than the corresponding MIC value measured for polymyxin B; conditions: class relative to polymyxin B; some strains multi-drug resistant
Experimental: (§2) The potency and spectrum of Compound 5 was studied using a panel of Gram negative bacterial strains.
(§3) MIC testing can be performed according to Clinical and Laboratory Standards Institute (CLSI) M7-A7 (2006) broth microdilution methods. Unless otherwise indicated, MIC values are provided in units of micrograms per milliliter.
(§4) One day prior to testing, individual colonies were isolated by streaking onto rich, non-selective Tryptic Soy agar with 5% lysed sheeps blood (TSAB) with incubation at 35-37° C. for 18-24 hours.
(§5) Cultures were prepared by touching 3-5 colonies into 3 mL of cation-adjusted Mueller Hinton Broth (caMHB) in a 14-mL tube (caMHB was prepared and sterilized according to manufacturer's specifications).
(§6) OD600 of growing cultures was measured and adjusted to approximately 10^5 colony forming units per mL (CFU/mL) in caMHB for MIC inoculation (approximately OD600 0.001).
(§7) Diluted cultures were used to inoculate 50 μL per well in broth microdilution assays (final volume 100 μl per well; compounds were prepared in two-fold dilutions).
(§8) Plates were incubated 16-20 hours at 37° C., with shaking at 200 rpm.
(§9) OD600 was determined for all wells. Growth was defined as OD600>0.1. MICs were defined as the lowest concentration producing no visible turbidity (OD600<0.1).

P. aeruginosa #44 = assay: MICs for P. aeruginosa #44 in the presence of surfactant; type: cell-based; set-up: key: A: a MIC value measurement that is the same as that observed for polymyxin B; a MIC value measured that is lower than the comparable value observed for polymxin B; a MIC value measured that is higher than the comparable value observed for polymyxin B; conditions: class relative to polymyxin B
Experimental: as §1

K. pneumoniae = assay: MIC50-90 against small panels (n = 35); type: cell-based; set-up: key: A: a MIC value measurement that is the same as that observed for polymyxin B; a MIC value measured that is lower than the comparable value observed for polymxin B; a MIC value measured that is higher than the comparable value observed for polymyxin B; conditions: small panel n = 35; class relative to polymyxin B
From the text: (§10) MIC's refer to the concentration of each antimicrobial agent required to inhibit the growth of a bacterial isolate, as well as the corresponding concentrations required to inhibit 50% and 90% of each group of microorganisms tested [MIC50 and MIC90, respectively, consistent with definitions in the “Instructions to Authors” for Antimicrobial Agents and Chemotherapy (Antimicrobial Agents and Chemotherapy, January 2010, p. 1-23, Vol. 54, No. 1, incorporated herein by reference)]. When only up to nine isolates of a species are tested, MIC's are reported as the MIC range of each antimicrobial agent tested. MIC values provided as numerical ranges for testing of a single bacterial strain indicate the range of MIC values obtained in repeated tests of the indicated bacteria strain.
as §1

A. baumannii = assay: MIC50-90 against small panels (n = 35); type: cell-based; set-up: key: A: a MIC value measurement that is the same as that observed for polymyxin B; a MIC value measured that is lower than the comparable value observed for polymxin B; a MIC value measured that is higher than the comparable value observed for polymyxin B; conditions: small panel n = 35; class relative to polymyxin B
From the text: as §10, §1

E. coli [4] = assay: MIC50-90 against small panels (n = 35); type: cell-based; set-up: key: A: a MIC value measurement that is the same as that observed for polymyxin B; a MIC value measured that is lower than the comparable value observed for polymxin B; a MIC value measured that is higher than the comparable value observed for polymyxin B; conditions: small panel n = 35; class relative to polymyxin B
From the text: as §10, §1

P. aeruginosa = assay: MIC50-90 against small panels (n = 35); type: cell-based; set-up: key: A: a MIC value measurement that is the same as that observed for polymyxin B; a MIC value measured that is lower than the comparable value observed for polymxin B; a MIC value measured that is higher than the comparable value observed for polymyxin B; conditions: small panel n = 35; class relative to polymyxin B
From the text: as §10, §1

P. aeruginosa 44 [5] = assay: Neutropenic mouse lung infection model; type: in vivo; conditions: mouse lung model, 8 through 20 mg/kg dose levels
Experimental: Compound of Formula (Ia) was tested in a murine thigh model. For the thigh model, female CD-1 mice were rendered neutropenic by IP injection on days −4 and −1 with 150 and 100 mg/kg cyclophosphamide, respectively. On day 0 mice were infected with 1×10^7 colony-forming units (cfu) of A. baumannii 1570 in one thigh muscle, and then administered compound SC in a dose ranging from 2 to 12 mg/kg at 1 and 6 hours post-infection.
The mouse lung model was run in the same manner as the thigh infection model, except that mice were infected IN with 1×10^7 cfu of P. aeruginosa 44 on day 0. Doses administered in the lung study ranged from 8 to 20 mg/kg. The ED−3log10 was based on cfu determination from the lung tissue 24 hours post-infection.

E. coli [6] = assay: MIC50 and MIC90, panel of Gram negative bacterial strains (CLSI broth microdilution); type: cell-based; set-up: key to E. coli MIC50 / E. coli MIC90: A: a measured MIC value equal to that of polymyxin B; a measured MIC value less than the corresponding MIC value measured for polymyxin B; a measured MIC value greater than the corresponding MIC value measured for polymyxin B; conditions: class relative to polymyxin B; some strains multi-drug resistant
Experimental: as §2, §3, §4, §5, §6, §7, §8, §9

P. aeru = assay: as above; type: cell-based, P. Aeruginosa; set-up: key to P. aeru MIC50 / P. aeru MIC90: A: a measured MIC value equal to that of polymyxin B; a measured MIC value less than the corresponding MIC value measured for polymyxin B; a measured MIC value greater than the corresponding MIC value measured for polymyxin B; conditions: class relative to polymyxin B; some strains multi-drug resistant
Experimental: as §2, §3, §4, §5, §6, §7, §8, §9

K. pneu = assay: as above; type: cell-based, K. pneumonia; set-up: key to K. pneu MIC50 / K. pneu MIC90: A: a measured MIC value equal to that of polymyxin B; a measured MIC value less than the corresponding MIC value measured for polymyxin B; a measured MIC value greater than the corresponding MIC value measured for polymyxin B; conditions: class relative to polymyxin B; some strains multi-drug resistant
Experimental: as §2, §3, §4, §5, §6, §7, §8, §9

**Q.** Which Clinical signs [1] does the source give for `CC[C@H](C)CCCCC(=O)N[C@@H](CCN)C(=O)N[C@H](C(=O)N[C@H](CCN)C(=O)N[C@H]1CCNC(=O)[C@H]([C@@H](C)O)NC(=O)[C@H](CCN)NC(=O)[C@H](CCN)NC(=O)[C@H]([C@@H](C)O)NC(=O)[C@@H](CC(C)C)NC(=O)[C@H](CCN)NC1=O)[C@@H](C)O` [Native Polymyxin A, Polymyxin A] (X1-[Dab]T[dDab][Dab][Dab][dL]T[Dab][Dab]T; lactam 4-C) here?
**A.** no clinical signs were observed

**Q.** What about the “MIC A. baumannii 1570” value (A. baumannii 1570) of the same compound?
**A.** C

**Q.** What about the “MIC K. pneumoniae 1800 (PMX-resistant)” value [2] of the same compound?
**A.** C

**Q.** And the “MIC K. pneumoniae 933” value (K. pneumoniae 933)?
**A.** B

**Q.** What about the “MIC P. aeruginosa 44” value (P. aeruginosa 44 [3]) of the same compound?
**A.** A

**Q.** And the “A. baum MIC50” value (A. baum)?
**A.** A

**Q.** And the “A. baum MIC90” value (A. baum)?
**A.** A

**Q.** And the “MIC P. aeruginosa #44, 0% surfactant” value (P. aeruginosa #44; 0% surfactant)?
**A.** C

**Q.** What about the “MIC P. aeruginosa #44, 10% surfactant” value (P. aeruginosa #44; 10% surfactant (Survanta) in caMHB) of the same compound?
**A.** B

**Q.** And the “MIC P. aeruginosa #44, 40% surfactant” value (P. aeruginosa #44; 40% surfactant (Survanta) in caMHB)?
**A.** B

**Q.** And the “K. pneumoniae MIC50” value (K. pneumoniae)?
**A.** C

**Q.** What about the “K. pneumoniae MIC90” value (K. pneumoniae) of the same compound?
**A.** C

**Q.** And the “A. baumannii MIC50” value (A. baumannii)?
**A.** A

**Q.** What about the “A. baumannii MIC90” value (A. baumannii) of the same compound?
**A.** A

**Q.** And the “E. coli MIC50” value (E. coli [4])?
**A.** B

**Q.** And the “E. coli MIC90” value (E. coli [4])?
**A.** A

**Q.** And the “P. aeruginosa MIC50” value (P. aeruginosa)?
**A.** A

**Q.** And the “P. aeruginosa MIC90” value (P. aeruginosa)?
**A.** C

**Q.** And the “Lungs cleared within one log10 of limit of detection” value (P. aeruginosa 44 [5])?
**A.** not observed

**Q.** And the “E. coli MIC50” value (E. coli [6])?
**A.** B

**Q.** What about the “E. coli MIC90” value (E. coli [6]) of the same compound?
**A.** A

**Q.** What about the “P. aeru MIC50” value (P. aeru) of the same compound?
**A.** A

**Q.** And the “P. aeru MIC90” value (P. aeru)?
**A.** C

**Q.** And the “K. pneu MIC50” value (K. pneu)?
**A.** C

**Q.** And the “K. pneu MIC90” value (K. pneu)?
**A.** C
